Assay [1] deals with T1, tilapia SSTR2a (Oreochromis niloticus, UniProt I3KUD5). The assay can be described thus: Cre-luc reporter assay, ligand plus forskolin, COS-7 cells transfected with SSTR2a. It is filed as cell-based, Nile tilapia (Oreochromis niloticus). The following applies: FSK 20 μM, subnanomolar concentrations. The source says: (§1) The signaling pathways of SSTRs were studied by inserting the entire coding sequence of the four receptors expressed in the pituitary (SSTR2a, SSTR3a, SSTR5b, and SSTR3b; accession nos. XP_003438730.1, XP_019215873.1, XP_003452896.1, and XP_019213185.1, respectively; Table 1 ) into pcDNA3.1 (Invitrogen) and verified by cloning and sequencing. The sequences were obtained from GenScript Biotech based on sequence information retrieved from GenBank. The procedures for transient transfection of the different cell lines and receptor stimulation have been described previously ([35], [36]). In brief, COS-7 cells were cotransfected with a luciferase reporter plasmid (Cre-luc; 3 µg) and one of the SSTRs (3 µg). As a control treatment, the […] (data not shown). […] Six hours after stimulation, the cells were analyzed using the GloMax multidetection system (Promega).

In assay [2] the target is T2, tilapia SSTR3a (Oreochromis niloticus, UniProt I3K8H1).
T2 sequence (I3K8H1 1-482): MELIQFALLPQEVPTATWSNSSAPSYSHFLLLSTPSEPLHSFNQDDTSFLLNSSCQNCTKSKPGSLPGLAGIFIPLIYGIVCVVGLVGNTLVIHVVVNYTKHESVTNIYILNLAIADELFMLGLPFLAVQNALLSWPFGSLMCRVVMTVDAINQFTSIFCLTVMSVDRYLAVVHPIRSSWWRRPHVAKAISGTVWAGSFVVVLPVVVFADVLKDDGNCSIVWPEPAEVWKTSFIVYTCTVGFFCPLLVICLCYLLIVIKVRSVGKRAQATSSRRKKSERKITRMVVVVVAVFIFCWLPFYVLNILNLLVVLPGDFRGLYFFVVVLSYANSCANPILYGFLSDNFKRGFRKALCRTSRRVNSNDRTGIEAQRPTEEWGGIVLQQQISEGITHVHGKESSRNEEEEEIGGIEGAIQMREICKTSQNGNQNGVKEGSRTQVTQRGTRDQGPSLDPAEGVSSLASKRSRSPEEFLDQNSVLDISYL
The experiment in a line: Cre-luc reporter assay, ligand plus forskolin, COS-7 cells transfected with SSTR3a. It is filed as cell-based, Nile tilapia (Oreochromis niloticus). The following applies: FSK 20 μM, mean ± SEM, read-out: IC50 on SST-R3a (Cre-luciferase).
Excerpt: as §1

For assay [3], the target named is T3, tilapia SSTR5b (Oreochromis niloticus, UniProt I3J1C6).
T3 sequence (I3J1C6 1-359): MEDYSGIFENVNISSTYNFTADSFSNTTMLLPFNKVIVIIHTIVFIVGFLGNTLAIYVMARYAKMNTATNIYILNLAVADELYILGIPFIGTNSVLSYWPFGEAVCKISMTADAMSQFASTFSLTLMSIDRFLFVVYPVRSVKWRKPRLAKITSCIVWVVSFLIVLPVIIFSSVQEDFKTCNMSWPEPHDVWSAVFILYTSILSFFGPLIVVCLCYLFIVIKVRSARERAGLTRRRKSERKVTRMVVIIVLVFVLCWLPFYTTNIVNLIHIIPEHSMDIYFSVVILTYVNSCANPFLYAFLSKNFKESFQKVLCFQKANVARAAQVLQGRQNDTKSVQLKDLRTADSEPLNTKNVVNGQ
The experiment in a line: Cre-luc reporter assay, ligand plus forskolin, COS-7 cells transfected with SSTR5b. Conditions: FSK 20 μM, mean ± SEM, read-out: IC50 on SST-R5b (Cre-luciferase). In kind it is cell-based, Nile tilapia (Oreochromis niloticus).
Excerpt: as §1

Assay [4] concerns the target T4, tilapia SSTR3b (Oreochromis niloticus, UniProt I3L056). The assay can be described thus: Cre-luc reporter assay, agonist/antagonist combination plus forskolin, COS-7 cells with SSTR3b. In kind it is cell-based, Nile tilapia (Oreochromis niloticus).
Excerpt: as §1
In another set of assays, the SST receptors were exposed to increasing concentrations of cyclosomatostatin, an SSTR antagonist (0–1000 nM; each in triplicate), in combination with octreotide, an SSTR agonist (10 nM), and FSK (20 μM), or increasing concentrations of octreotide (0–1000 nM; each in triplicate) in combination with cyclosomatostatin (10 nM) and FSK (20 μM). Three individual experiments were conducted using distinct batches of COS-7 cells for each experiment and including three replicates for every concentration.
(A reporter such as luciferase makes a cellular process visible.)

Assay [5] has as its target T1, tilapia SSTR2a. The experiment in a line: Cre-luc reporter assay, agonist/antagonist combination plus forskolin, COS-7 cells with SSTR2a. It is filed as cell-based, Nile tilapia (Oreochromis niloticus). Conditions: mean ± SEM.
Excerpt: as §1
(§2) In another set of assays, the SST receptors were exposed to increasing concentrations of cyclosomatostatin, an SSTR antagonist (0–1000 nM; each in triplicate), in combination with octreotide, an SSTR agonist (10 nM), and FSK (20 μM), or increasing concentrations of octreotide (0–1000 nM; each in triplicate) in combination with cyclosomatostatin (10 nM) and FSK (20 μM). […]

The next assay concerns LH plasma levels. The experiment in a line: In vivo effect on LH plasma levels (ELISA) after IP injection. The arrangement: species or system Nile tilapia (Oreochromis niloticus). The following applies: female tilapia, 100 µg/kg IP, sampled 2, 4, 6, 24 h. How it is done:
(§3) Adult female tilapia (body weight 89.29 ± 32.93 g) were injected IP with saline, cyclosomatostatin, or octreotide (100 μg/kg; n = 8 fish per group). The fish were bled from the caudal blood vessels into heparinized syringes at 0, 2, 4, 6, and 24 h after injection. Blood was centrifuged at 3,200 rpm for 30 min at 4°C to obtain plasma samples, which were stored at -20°C until assayed. This standard protocol was used previously to test the effect of GnRH and other hypothalamic neuropeptides on circulating levels of LH, FSH, and GH in tilapia ([33], [37], [38]). Three independent experiments were performed for each treatment. Plasma levels of LH, FSH, and GH were measured by specific competitive ELISAs developed for tilapia ([39], [40]) based on recombinant ([…] or rtiGH. The […] produced against […]β ([40]), or rtGH ([39]), and […]βα ([37]) or rtGH ([39]) was used to generate a standard curve. The sensitivity of plasma measurements was 15.84 pg/ml for LH, 0.24 pg/ml for FSH, and 35.0 pg/ml for GH.

In another assay the test system is GH plasma levels. The assay can be described thus: In vivo effect on GH plasma levels (ELISA) after IP injection. Set-up: species or system Nile tilapia (Oreochromis niloticus). Conditions: female tilapia, 100 µg/kg IP, sampled 2, 4, 6, 24 h. On the procedure:
as §3
A general note: An ELISA detects its analyte on a solid surface through an enzyme-linked reagent.

In a further assay the test system is SSTR3a. The arrangement: method as in PMID 8532003. Conditions: cited from earlier work.
For another assay, the system named is SSTR5. Set-up: method as in PMID 8532003. The following applies: human; cited from earlier work.
For assay [6], the target named is T3, tilapia SSTR5b. The experiment in a line: Cre-luc reporter assay, agonist/antagonist combination plus forskolin, COS-7 cells with SSTR5b. In kind it is cell-based, Nile tilapia (Oreochromis niloticus). The following applies: mean ± SEM.
Excerpt: as §1, §2

For a further assay, the system named is aggressive behavior. Set-up: method as in PMID 16887916. The following applies: cichlid fish, 4 mg/kg; cited from earlier work.
Another assay relates to FSH plasma levels. The assay can be described thus: In vivo effect on FSH plasma levels (ELISA) after IP injection. Set-up: species or system Nile tilapia (Oreochromis niloticus). The following applies: female tilapia, 100 µg/kg IP, sampled 2, 4, 6, 24 h. How it is done: as §3
The next assay concerns human SSTR2. The arrangement: method as in PMID 8532003. The following applies: cited from earlier work.
Assay [7] has as its target T4, tilapia SSTR3b. The assay can be described thus: Cre-luc reporter assay, ligand plus forskolin, COS-7 cells transfected with SSTR3b. In kind it is cell-based, Nile tilapia (Oreochromis niloticus). Conditions: FSK 20 μM alone as backdrop.
Description: In brief, COS-7 cells were cotransfected with a luciferase reporter plasmid (Cre-luc; 3 µg) and one of the SSTRs (3 µg). […] Six hours after stimulation, the cells were analyzed using the GloMax multidetection system (Promega).
In assay [8] the target is T2, tilapia SSTR3a. The experiment in a line: Cre-luc reporter assay, agonist/antagonist combination plus forskolin, COS-7 cells with SSTR3a. It is filed as cell-based, Nile tilapia (Oreochromis niloticus). The following applies: in presence of octreotide 10 nM and FSK 20 μM, mean ± SEM, read-out: EC50 on SST-R3a (Cre-luciferase).
Excerpt: as §1, §2

Values joined by “and” are separate entries in the source; they are usually repeats but may differ in a detail not shown here. Identical values can stand only once. “Also recorded” adds a separate entry of the source. Positions of bridges follow the written chain, without caps; N, C: chain ends. Non-standard residues stand in square brackets, D forms with d. Residues, ends and D or L forms follow the SMILES beside them. *: point of attachment. Ahp = NCCCCCCC(=O)O; Bn = c1ccc(C*)cc1

T4 sequence (I3L056 29-511): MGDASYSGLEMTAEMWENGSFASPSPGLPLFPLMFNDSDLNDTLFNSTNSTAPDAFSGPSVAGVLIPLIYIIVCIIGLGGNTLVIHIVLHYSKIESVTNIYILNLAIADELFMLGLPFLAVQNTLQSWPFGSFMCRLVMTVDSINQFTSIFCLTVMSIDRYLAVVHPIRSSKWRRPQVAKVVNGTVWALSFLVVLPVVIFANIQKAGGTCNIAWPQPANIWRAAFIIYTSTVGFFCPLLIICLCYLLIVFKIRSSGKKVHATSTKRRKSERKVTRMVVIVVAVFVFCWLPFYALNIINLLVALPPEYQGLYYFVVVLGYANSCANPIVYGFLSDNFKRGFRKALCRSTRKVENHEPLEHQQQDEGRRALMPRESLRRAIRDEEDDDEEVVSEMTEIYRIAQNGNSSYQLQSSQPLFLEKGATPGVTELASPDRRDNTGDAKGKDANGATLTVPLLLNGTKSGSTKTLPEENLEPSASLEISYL
T1 sequence (I3KUD5 1-379): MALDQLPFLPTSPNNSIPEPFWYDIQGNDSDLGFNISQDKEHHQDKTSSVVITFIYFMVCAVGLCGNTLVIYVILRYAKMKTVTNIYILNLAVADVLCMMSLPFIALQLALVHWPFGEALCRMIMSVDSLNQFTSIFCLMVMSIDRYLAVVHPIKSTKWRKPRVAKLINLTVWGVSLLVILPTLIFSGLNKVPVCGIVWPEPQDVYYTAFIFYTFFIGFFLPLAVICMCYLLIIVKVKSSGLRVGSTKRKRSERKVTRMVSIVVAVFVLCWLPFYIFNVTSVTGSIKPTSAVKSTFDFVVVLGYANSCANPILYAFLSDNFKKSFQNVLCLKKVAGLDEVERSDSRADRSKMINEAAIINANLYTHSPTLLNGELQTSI

Usually IC50 stands for the midpoint of a concentration-inhibition curve. Turning to `CC(C)C[C@@H]1NC(=O)CNC(=O)[C@H](CCCCN)NC(=O)[C@H](Cc2c[nH]c3ccccc23)NC(=O)[C@H](Cc2ccc(O)cc2)NC(=O)[C@H](Cc2ccccc2)NC(=O)[C@H](CC(N)=O)NC(=O)[C@H](CCCCN)NC(=O)[C@@H](NC(=O)CNC(=O)[C@H](C)N)CSSC[C@@H](C(=O)O)NC(=O)[C@H](CO)NC(=O)[C@H]([C@@H](C)O)NC1=O` [SST3] (H-AGCKNFYWKGLTSC-OH; disulfide 3-14; N-terminus and C-terminus assumed), the “Effect on tiSSTR2a Cre-luc activity” value at tilapia SSTR2a [1] is listed as “inhibited”. Further, the IC50 on tilapia SSTR3a [2] stood at 572.9 ± 0.1 nM; at tilapia SSTR5b [3] it was 720.2 ± 0.5 nM.

Turning to `C[C@@H](O)[C@@H]1NC(=O)[C@H](CCCCN)NC(=O)[C@@H](Cc2c[nH]c3ccccc23)NC(=O)[C@H](Cc2ccccc2)NC(=O)[C@@H](NC(=O)[C@H](N)Cc2ccccc2)CSSC[C@@H](C(=O)N[C@H](CO)[C@@H](C)O)NC1=O` [Octreotide, octreotide], the half-maximal inhibitory concentration (IC50) was 0.35 ± 0.04 nM on tilapia SSTR3b [4] (COS-7 cells, in presence of cyclosomatostatin 10 nM and FSK 20 μM, mean ± SEM, read-out: IC50 on SST-R3b (Cre-luciferase)); 0.81 ± 0.01 nM on tilapia SSTR2a [5] (in presence of cyclosomatostatin 10 nM and FSK 20 μM, read-out: IC50 on SST-R2a (Cre-luciferase)); 17.4 ± 3.14 nM on tilapia SSTR5b [6] (in presence of cyclosomatostatin 10 nM and FSK 20 μM, read-out: IC50 on SST-R5b (Cre-luciferase)); 0.004 nM on tilapia SSTR3a [2]; 906 nM and 157 nM at tilapia SSTR5b [3]. In addition, the “LH plasma levels vs control” value with LH plasma levels is listed as “remained similar to the control; also recorded: no significant effect”; in the assay on LH plasma levels (listed as octreotide), “remained unaffected”. For the same compound, the “GH plasma levels vs control” value in the assay on GH plasma levels is “significantly decreased”. Besides, the “Affinity to SSTR3a” value in the assay with SSTR3a was “moderate affinity”. Besides, the “Effect on tiSSTR2a Cre-luc activity” value at tilapia SSTR2a [1] is on record as “inhibited”. In addition, the “Affinity to SSTR5” value in the assay on SSTR5 was “high affinity”. The Aggressive behavior result with aggressive behavior is listed as “decrease”. Moreover, the results for the “FSH plasma levels vs control” value in the assay on FSH plasma levels and with FSH plasma levels (listed as octreotide) were “reduced” and “decreased”, respectively. Further, in the assay with human SSTR2, the “Affinity to human SSTR2” value is given as “high affinity”. Also, the “Effect on SSTR3b Cre-luc activity” value at tilapia SSTR3b [7] is given as “no discernible activation”.

With `C[C@H](N)C(=O)N1CCC[C@H]1C(=O)N[C@H]1CSSC[C@@H](C(=O)O)NC(=O)[C@H](CO)NC(=O)[C@H]([C@@H](C)O)NC(=O)[C@H](Cc2ccccc2)NC(=O)[C@H]([C@@H](C)O)NC(=O)[C@H](CCCCN)NC(=O)[C@H](Cc2c[nH]c3ccccc23)NC(=O)[C@H](Cc2ccccc2)NC(=O)[C@H](Cc2ccccc2)NC(=O)[C@H](CC(N)=O)NC(=O)[C@H](CCCCN)NC1=O` [SST6] (H-APCKNFFWKTFTSC-OH; disulfide 3-14; N-terminus and C-terminus assumed), the “Effect on tiSSTR2a Cre-luc activity” value on tilapia SSTR2a [1] is “inhibited”. Moreover, the results for the IC50 on tilapia SSTR3a [2] and on tilapia SSTR5b [3] were 3.75 ± 0.04 nM and 906.1 ± 0.5 nM, respectively.

As a reminder, the EC50 is the concentration needed to bring the measured effect to its halfway point. In the case of `C[C@@H](OCc1ccccc1)[C@@H]1NC(=O)[C@H](CCCCN)NC(=O)[C@@H](Cc2c[nH]c3ccccc23)NC(=O)[C@H](Cc2ccccc2)NC(=O)CCCCCCNC1=O` [Cyclosomatostatin, cyclosomatostatin] (cyclo([Ahp]F[dW]KT(Bn)); ring closure inferred), the 50% effective concentration (EC50) at tilapia SSTR3b [4] (COS-7 cells, in presence of octreotide 10 nM and FSK 20 μM, mean ± SEM, read-out: EC50 on SST-R3b (Cre-luciferase)) came out at 46.2 ± 3.82 nM; at tilapia SSTR2a [5] (in presence of octreotide 10 nM and FSK 20 μM, read-out: EC50 on SST-R2a (Cre-luciferase)) it was 189 ± 4.34 nM; at tilapia SSTR5b [6] (in presence of octreotide 10 nM and FSK 20 μM, read-out: EC50 on SST-R5b (Cre-luciferase)), 2.15 ± 0.009 nM; at tilapia SSTR3a [8], 0.1 ± 0.001 nM. At tilapia SSTR3b [4] (in the presence of both FSK and octreotide), the “Activation of SSTR3b (Cre-luc)” value is reported as “efficient activation”. Further, the “LH plasma levels vs control” value was “increased” with LH plasma levels and “returned to baseline after 4 h” in the assay with LH plasma levels (listed as SSTR antagonist). Moreover, the “GH plasma levels vs control” value in the assay on GH plasma levels was “the same as in the control fish”. In addition, the figures for the “FSH plasma levels vs control” value in the assay on FSH plasma levels and in the assay with FSH plasma levels (listed as SSTR antagonist) were “increased” and “remained elevated for 6 h”, respectively.

These data come from paper PMC11224465, “Characterization of the somatostatin system in tilapia: implications for growth and reproduction” (Frontiers in Endocrinology, 2024).
